According to patent US20230133169A1, “EGFR INHIBITOR, COMPOSITION, AND METHOD FOR PREPARATION THEREOF” (BETTA PHARMACEUTICALS CO., LTD, priority 2019, published 2023):

What was measured:
EGFR Δ19del/T790M/C797S = EGFR Δ19del/T790M/C797S (Homo sapiens, UniProt P00533, T790M/C797S, form not given); experiment: EGFR Δ19del/T790M/C797S kinase test (mobility variation analysis, Caliper EZ Reader); assay type: biochemical; conditions: kinase inhibition, top concentration 300 nM
Protocol: Mobility variation analysis was performed to determine the affinity of the compound for EGFRΔ19del/T790M/C797S. The enzymatic reaction scheme is as follows:
1. Prepare 1*kinase buffer as follows.
2. Prepare compound concentration gradient: The test compound was tested at concentration of 300 nM, diluted with 100% DMSO solution in a 96-well plate to 100-fold final concentration, and then diluted to 3-fold concentration with Precision.10. Compound at each concentration was further diluted to 5-fold final concentration of intermediate dilution.
3. Add 5 μL of each prepared intermediate dilution compounds to the compound wells of 384-well plate respectively, and test the repeated wells of each concentration; add 5 μL of 5% DMSO into the negative control well and the positive control well respectively.
4. Prepare 2.5-fold final concentration of kinase solution with 1×Kinase buffer.
5. Add 10 μL of 2.5-fold final concentration of kinase solution to the compound well and the positive control well; add 10 μL of 1×Kinase buffer to the negative control well.
6. Centrifuge at 1000 rpm for 30 s, shake the reaction plate for well mixing, and then incubate at room temperature for 10 minutes.
7. Prepare a mixture of ATP and Kinase substrate (5-FAM-EEPLYWSFPAKKK-CONH2) at 2.5-fold final concentration with 1×Kinase buffer.
8. Add 10 μL mixture of ATP and substrate at 2.5-fold final concentration to start reaction.
9. Centrifuge the 384-well plate at 1000 rpm for 30 s, shake it well and then incubate it at room temperature for corresponding time.
10. Add 30 μL of stop detection solution to stop the kinase reaction, centrifuge at 1000 rpm for 30 s, and shake it well.
11. Read conversion rate with Caliper EZ Reader.
Convert the conversion rate to inhibition rate:
inhibition %=(max−conversion % sample)/(max−min)*100.
“max”: Mean value of negative control wells; “min”: Mean value of positive control wells; conversion % sample: Sample conversion reading.
GraphPad Prism 5 was used for % inhibition curve fitting to obtain the IC50 value.
The calculation formula: Y=inhibition %_min+(inhibition %_max−inhibition %_min)/(1+(IC50/X)^slope). wherein, Y is inhibition %; X is concentration of compound to be tested.

[1] = biological target: Ba/F3-Δ19del/T790M/C797S cells (Homo sapiens, UniProt P00533, T790M/C797S, cells depend on it, form not given); experiment: Ba/F3-Δ19del/T790M/C797S cell proliferation assay (CellTiter Glo); assay type: cell-based; conditions: 72 hours, CTG luminescence, read-out: BaF3 Δ19del/T790M/C797S IC50
Sequence of Ba/F3-Δ19del/T790M/C797S cells (P00533 with tags, fused parts or gaps DEL746-750/T790M/C797S, form open): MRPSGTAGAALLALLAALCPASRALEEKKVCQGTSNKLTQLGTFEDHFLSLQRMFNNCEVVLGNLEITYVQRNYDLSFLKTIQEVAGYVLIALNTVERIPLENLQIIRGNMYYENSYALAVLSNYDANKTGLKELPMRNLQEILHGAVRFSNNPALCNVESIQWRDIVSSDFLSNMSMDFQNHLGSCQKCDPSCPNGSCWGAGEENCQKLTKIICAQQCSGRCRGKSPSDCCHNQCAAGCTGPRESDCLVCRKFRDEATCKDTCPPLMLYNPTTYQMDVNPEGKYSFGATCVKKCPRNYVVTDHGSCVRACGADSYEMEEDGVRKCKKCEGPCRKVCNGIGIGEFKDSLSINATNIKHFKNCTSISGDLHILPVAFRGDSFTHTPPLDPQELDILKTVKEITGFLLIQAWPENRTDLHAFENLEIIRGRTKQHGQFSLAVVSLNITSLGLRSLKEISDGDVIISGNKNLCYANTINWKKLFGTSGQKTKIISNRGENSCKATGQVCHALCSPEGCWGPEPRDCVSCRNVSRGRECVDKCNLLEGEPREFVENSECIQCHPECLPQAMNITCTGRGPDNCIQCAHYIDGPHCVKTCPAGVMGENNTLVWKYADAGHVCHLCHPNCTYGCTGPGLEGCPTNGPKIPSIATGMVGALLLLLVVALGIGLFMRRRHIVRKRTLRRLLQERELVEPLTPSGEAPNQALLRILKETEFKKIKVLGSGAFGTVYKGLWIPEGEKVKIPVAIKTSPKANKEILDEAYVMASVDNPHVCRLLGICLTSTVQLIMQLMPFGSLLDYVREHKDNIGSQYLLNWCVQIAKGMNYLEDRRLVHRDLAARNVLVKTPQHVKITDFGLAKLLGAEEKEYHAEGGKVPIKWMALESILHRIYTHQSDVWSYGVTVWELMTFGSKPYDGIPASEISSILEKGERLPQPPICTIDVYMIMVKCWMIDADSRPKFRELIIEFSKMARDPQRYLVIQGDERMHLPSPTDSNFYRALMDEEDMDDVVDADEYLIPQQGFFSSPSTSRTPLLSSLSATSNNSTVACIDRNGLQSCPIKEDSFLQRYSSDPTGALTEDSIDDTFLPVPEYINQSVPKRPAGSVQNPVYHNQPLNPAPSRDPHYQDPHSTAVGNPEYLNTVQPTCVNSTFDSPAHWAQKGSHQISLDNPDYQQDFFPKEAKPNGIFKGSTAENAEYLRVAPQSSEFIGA
Protocol: (§1) RPMI 1640, 10% FBS and 1% PS; DMEM, 10% FBS and 1% PS
(§2) a) The medium was preheated in a 37° C. water bath in advance.
(§3) b) Remove the cryogenic vials from the liquid nitrogen tank, quickly put it into a 37° C. water bath, and completely melt it in 1 min.
(§4) c) Transfer the cell suspension to a 15 mL centrifuge tube containing 8 mL of medium, and centrifuge at 1000 rpm for 5 min.
(§5) d) Discard the supernatant, resuspend the cells in 1 mL of culture medium, transfer it to a 75 cm^2 flask containing 15 mL of culture medium, and culture the cells in a incubator with 5% CO2 at 37° C.
(§6) b) Collect the cells in a 15 mL centrifuge tube and centrifuge at 1000 rpm for 5 min. Discard the supernatant, count to make the cell density at 1×10^4 cells/mL, and then place it in a incubator with 5% CO2 at 37° C.
(§7) a) Dilute the test compound (20 mM stock solution) to 10 mM with 100% DMSO as the starting concentration, and then serially dilute 3 times with a “9+0” concentration in 96-well dilution plate (Cat #P-05525, Labcyte);
(§8) b) Dilute compound solution thereof to 1:100 in medium to prepare 10-fold working solution.
(§9) a) Centrifuge the growth cells in logarithmic phase at 1000 rpm for 5 minutes, resuspend the cells in culture medium, and then count the cells;
(§10) b) Inoculate the cells into a 96-well cell culture plate with a density of 2000 cells/well;
(§11) a) 15 μl of compounds prepared at step 2 were added to cell plate, the final concentrations were […], 370.4, 123.5, 41.2, 13.7, 4.6, 1.5 and 0 nM, and the final concentration of DMSO was 0.1%. The blank control well was a culture medium (0.1% DMSO);
(§12) b) Incubate cells in an incubator for another 72 hours;
(§13) a) Take out the 96-well cell culture plate and add 50 μl of CTG reagent (CellTiter Glo kit, promega, Cat#G7573);
(§14) b) Shake the plate for 2 minutes and let cool at room temperature for 10 minutes;
(§15) c) Read luminous signal value with PerkinElmer reader.
(§16) The data were analyzed by GraphPad Prism 6.0 software to obtain the fitting curve of compound activity.
(§17) Fitting compound IC50 from nonlinear regression equation:
(§18) Y=Min+(Max−Min)/(1+10^((Log IC50−X)*slope));
(§19) X: Logarithm of compound concentration; Y: luminous signal value.

A431 wild-type cell line = experiment: A431 wild-type cell proliferation assay (CellTiter Glo); assay type: cell-based; conditions: Homo sapiens, A-431, 72 hours, CTG luminescence
Protocol: as §1, §2, §3, §4, §5, §6, §7, §8, §9, §10, §11, §12, §13, §14, §15, §16, §17, §18, §19

[2] = Pharmacokinetic experiment in rats, oral administration; assay type: in vivo; conditions: Sprague-Dawley (SD), rat, 5 mg/kg, male SD rats, 5 mpk, plasma
Protocol: Test 3 Pharmacokinetic Experiment
Male SD rats (3 rats in each group) were administered orally, and fasted overnight from at least 12 hours before administration to 4 hours after administration before the experiment. Blood was taken from the orbital vein. The time points of blood collection for oral administration were: 15 min, 30 min, 1 hr, 2 hr, 4 hr, 7 hr and 24 hr, the dosage of administration was 5 mpk, and the blood collection volume was 300 μL. After anticoagulant treatment with 2.0% EDTA, the blood was centrifuged at 4000 rpm for 5 min, and then about 100 μL was taken and placed for testing at −20° C. Plasma samples were analyzed by liquid chromatography tandem mass spectrometry (LC-MS/MS). The plasma concentration-time data of individual animals were analyzed by the non-compartment model of WinNonlin (V4.1, Pharsight) software, and the pharmacokinetic parameters of the compounds tested were calculated.

Sequence of EGFR Δ19del/T790M/C797S (P00533 with tags, fused parts or gaps DEL746-750/T790M/C797S, form open): as above

Row | IC50 (EGFR Δ19del/T790M/C797S) | GI50 [1] | IC50 (A431 wild-type cell line) | AUC(0-t) [2] | Cmax [2] | half-life ([2]; read-out: t½ (converted)) | Structure (SMILES)
1 | 0.3 nM | 5.2 nM | 604 nM | – | – | – | COc1cc(N2CCC(N3CCN(C)CC3)CC2)c(-c2ccn(C)c2)cc1Nc1ncc(Br)c(Nc2ccc(C3CC3)cc2P(C)(C)=O)n1 [Compound 9, (2-((5-Bromo-2-((2-methoxy-5-(1-methyl-1H-pyrrol-3-yl)-4-(4-(4-methylpiperazine-1-yl)piperidin-1-yl)phenyl)amino)pyrimidin-4-yl)-amino)-5-cyclopropylphenyl)dimethylphosphine oxide]
2 | 0.4 nM | 7.2 nM | 268 nM | – | – | – | CCn1cc(-c2cc(Nc3ncc(Br)c(Nc4ccc(C5CC5)cc4P(C)(C)=O)n3)c(OC)cc2N2CCC(N3CCN(C)CC3)CC2)cn1 [Compound 2]
3 | 0.7 nM | 15.6 nM | 674 nM | – | – | – | CCc1cc(Nc2ncc(Br)c(Nc3ccc(C4CCOCC4)cc3P(C)(C)=O)n2)c(OC)cc1N1CCC(N2CCN(C)CC2)CC1 [Compound 6, (2-((5-Bromo-2-((5-ethyl-2-methoxy-4-(4-(4-methylpiperazin-1-yl)piperidin-1-yl)phenyl)amino)pyrimidin-4-yl)amino)-5-(tetrahydro-2H-pyran-4-yl)phenyl)dimethylphosphine oxide]
4 | 1.2 nM | – | – | – | – | – | COc1cc(N2CCC(N3CCN(C)CC3)CC2)ccc1Nc1ncc(Cl)c(Nc2ccc(C3CC3)cc2P(C)(C)=O)n1 [Compound 4]
5 | 1.1 nM | 38.3 nM | 1400 nM | – | – | – | CCc1cc(Nc2ncc(Cl)c(Nc3ccc(C4CCCC4)cc3P(C)(C)=O)n2)c(OC)cc1N1CCC(N2CCN(C)CC2)CC1 [Compound 7, (2-((5-Chloro-2-((5-ethyl-2-methoxy-4-(4-(4-methylpiperazin-1-yl)piperidin-1-yl)phenyl)amino)pyrimidin-4-yl)amino)-5-cyclopentylphenyl)dimethylphosphine oxide]
6 | 0.3 nM | 1.2 nM | 682 nM | 32900 ng·h/mL | 2100 ng/mL | 9.1 h | CCc1cc(Nc2ncc(Br)c(Nc3ccc(C4CC4)cc3P(C)(C)=O)n2)c(OC)cc1N1CCC(N2CCN(C)CC2)CC1 [Compound 1, (2-((5-Bromo-2-((5-ethyl-2-methoxy-4-(4-(4-methylpiperazin-1-yl)piperidin-1-yl)phenyl)amino)pyrimidin-4-yl)amino)-5-cyclopropylphenyl)dimethylphosphine oxide]
7 | 0.3 nM | 9.7 nM | 543 nM | – | – | – | COc1cc(N2CCC(N3CCN(C)CC3)CC2)c(C)cc1Nc1ncc(Br)c(Nc2ccc(C3CC3)cc2P(C)(C)=O)n1 [Compound 10, (2-((5-Bromo-2-((2-methoxy-5-methyl-4-(4-(4-methylpiperazin-1-yl)piperidin-1-yl)phenyl)Amino)pyrimidin-4-yl)amino)-5-cyclopropylphenyl)dimethylphosphine oxide]
8 | 0.3 nM | 30.4 nM | 886 nM | – | – | – | CCc1cc(Nc2ncc(Br)c(Nc3ccc(N4CCOCC4)cc3P(C)(C)=O)n2)c(OC)cc1N1CCC(N2CCN(C)CC2)CC1 [Compound 8]
9 | 2.7 nM | 49.9 nM | – | – | – | – | COc1cc(N2CCC(N3CCN(C)CC3)CC2)ccc1Nc1ncc(Cl)c(Nc2ccc(C)cc2P(C)(C)=O)n1 [Control example 1, reference compound]
10 | 1.6 nM | 302 nM | – | – | – | – | CCc1cc(Nc2ncc(OC)c(Nc3ccc(C4CC4)cc3P(C)(C)=O)n2)c(OC)cc1N1CCC(N2CCN(C)CC2)CC1 [Compound 5]
11 | 0.4 nM | 55.4 nM | 830 nM | – | – | – | CCn1cc(-c2cc(Nc3ncc(OC)c(Nc4ccc(C5CC5)cc4P(C)(C)=O)n3)c(OC)cc2N2CCC(N3CCN(C)CC3)CC2)cn1 [Compound 3, (5-Cyclopropyl-2-((2-((5-(1-ethyl-1H-pyrazol-4-yl)-2-methoxy-4-(4-(4-methylpiperazin-1-yl)piperidin-1-yl)phenyl)amino)-5-methoxypyrimidin-4-yl)amino)phenyl)dimethylphosphine oxide]
